Key:
Settings in all cases: main component drawn
S. aureus Newman [1] = assay: Bliss interaction score (quartile over a dose matrix) (fitness difference); higher = more antagonism (negative = synergy)
Procedure, shortened: (§1)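 The Bliss score subtracts expected fitness, the product of the single-drug fitness values, from observed fitness. Fitness is plate-normalised OD595 at entry into stationary phase, relative to the robust no-drug mean and capped at 1, with single-drug fitness inferred from combinations. Summaries are quartiles over technical, biological and donor/recipient replicates.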

S. pneumoniae D39V [2] = assay: as above
Procedure, shortened: as §1

S. aureus DSM 20231 = assay: as above
Procedure, shortened: as §1

B. subtilis 168 [3] = assay: as above
Procedure, shortened: as §1

S. aureus Newman [4] = assay: fitness (endpoint OD595 vs no drug) (fraction); higher = more growth
Procedure, shortened: (§2)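 Fitness was defined as the optical density at the transition into stationary phase relative to the robust mean of no-drug control wells. Values were capped at 1. Cultures were started at OD595 0.01 in 384-well plates (30 µl, or 55 µl for S. pneumoniae) in TSB, LB Lennox or CY at 37 °C. OD595 was recorded every 30 min over 14 h, with the first reading subtracted as background.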

S. pneumoniae D39V [5] = assay: as above
Procedure, shortened: as §2

B. subtilis 168 [6] = assay: as above
Procedure, shortened: as §2
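For Bliss interaction score (quartile over a dose matrix) in this document: first quartile when negative (synergy) and third quartile when positive (antagonism).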

CNC(C)C1CCC(N)C(OC2C(N)CC(N)C(OC3OCC(C)(O)C(NC)C3O)C2O)O1 (stereo not given) [Gentamicin] + Cc1ncc([N+](=O)[O-])n1CCO [Metronidazole]
Settings | Bliss interaction score
B. subtilis 168 [3] | -0.0531
S. aureus DSM 20231 | 0.0225
S. aureus Newman [1] | 0.0412
S. pneumoniae D39V [2] | 0.0587

fitness, S. aureus Newman [4], one replicate
Settings | first compound 0.375 µg/mL | first compound 0.75 µg/mL | first compound 1.5 µg/mL
partner 0.625 µg/mL | 0.94 | 0.944 | 0.951
partner 1.25 µg/mL | ≥ 1 | ≥ 1 | ≥ 1
partner 2.5 µg/mL | ≥ 1 | ≥ 1 | ≥ 1

fitness
Settings | partner 0.625 µg/mL | partner 0.781 µg/mL | partner 1.073 µg/mL | partner 1.25 µg/mL | partner 1.562 µg/mL | partner 2.145 µg/mL | partner 2.5 µg/mL | partner 3.124 µg/mL | partner 4.29 µg/mL | partner 5 µg/mL
B. subtilis 168 [6], first compound 0.0625 µg/mL | 0.897 | – | – | 0.926 | – | – | 0.922 | – | – | –
B. subtilis 168 [6], first compound 0.25 µg/mL | 0.0729 | – | – | – | – | – | 0.0383 | – | – | –
S. aureus Newman [4], first compound 0.5 µg/mL | 0.995 | 0.92 | – | 0.979 | 0.911 | – | ≥ 1 | 0.913 | – | –
S. aureus Newman [4], first compound 1 µg/mL | ≥ 1 | ≥ 1 | – | 0.974 | ≥ 1 | – | 0.986 | ≥ 1 | – | –
S. aureus Newman [4], first compound 2 µg/mL | ≥ 1 | ≥ 1 | – | 0.981 | ≥ 1 | – | ≥ 1 | ≥ 1 | – | –
S. pneumoniae D39V [5], first compound 2 µg/mL | – | – | 0.983 | 0.985 | – | 0.864 | ≥ 1 | – | 0.8 | 0.996
S. pneumoniae D39V [5], first compound 4 µg/mL | – | – | 0.976 | 0.992 | – | 0.987 | ≥ 1 | – | 0.827 | 0.986
S. pneumoniae D39V [5], first compound 8 µg/mL | – | – | 0.98 | 0.955 | – | 0.96 | 0.959 | – | 0.942 | 0.959

CNC(C)C1CCC(N)C(OC2C(N)CC(N)C(OC3OCC(C)(O)C(NC)C3O)C2O)O1 (stereo not given) [Gentamicin] + Cc1onc(-c2ccccc2)c1C(=O)N[C@@H]1C(=O)N2[C@@H]1SC(C)(C)[C@@H]2C(=O)O [Oxacillin]
Settings | Bliss interaction score
B. subtilis 168 [3] | -0.0859
S. aureus DSM 20231 | 0.0545
S. aureus Newman [1] | 0.0666
S. pneumoniae D39V [2] | 0.104

fitness, one replicate
Settings | partner 0.0078 µg/mL | partner 0.0155 µg/mL | partner 0.0156 µg/mL | partner 0.031 µg/mL | partner 0.0312 µg/mL | partner 0.0625 µg/mL | partner 0.075 µg/mL | partner 0.15 µg/mL | partner 0.3 µg/mL
B. subtilis 168 [6], first compound 0.0625 µg/mL | ≥ 1 | 0.976 | – | 0.948 | – | – | 0.663 | 0.033 | 0.0409
B. subtilis 168 [6], first compound 0.125 µg/mL | 0.923 | 0.907 | – | 0.92 | – | – | 0.0517 | 0.0783 | 0.0465
B. subtilis 168 [6], first compound 0.25 µg/mL | 0.265 | 0.218 | – | 0.171 | – | – | 0.0546 | 0.0554 | 0.0541
S. aureus Newman [4], first compound 0.375 µg/mL | – | – | 0.785 | – | 0.736 | 0.648 | – | – | –
S. aureus Newman [4], first compound 0.75 µg/mL | – | – | 0.741 | – | 0.709 | 0.632 | – | – | –
S. aureus Newman [4], first compound 1.5 µg/mL | – | – | 0.581 | – | 0.106 | 0.113 | – | – | –

Settings | fitness
B. subtilis 168 [6], first compound 0.0625 µg/mL, partner 0.002 µg/mL | 0.899
B. subtilis 168 [6], first compound 0.0625 µg/mL, partner 0.004 µg/mL | 0.82
B. subtilis 168 [6], first compound 0.125 µg/mL, partner 0.002 µg/mL | 0.275
B. subtilis 168 [6], first compound 0.125 µg/mL, partner 0.004 µg/mL | 0.0851
B. subtilis 168 [6], first compound 0.125 µg/mL, partner 0.008 µg/mL | 0.0748
B. subtilis 168 [6], first compound 0.25 µg/mL, partner 0.002 µg/mL | 0.0462
B. subtilis 168 [6], first compound 0.25 µg/mL, partner 0.004 µg/mL | 0.0441
B. subtilis 168 [6], first compound 0.25 µg/mL, partner 0.008 µg/mL | 0.0454
S. aureus Newman [4], first compound 0.5 µg/mL, partner 0.0156 µg/mL | 0.82
S. aureus Newman [4], first compound 0.5 µg/mL, partner 0.0312 µg/mL | 0.782
S. aureus Newman [4], first compound 0.5 µg/mL, partner 0.0625 µg/mL | 0.672
S. aureus Newman [4], first compound 1 µg/mL, partner 0.0156 µg/mL | 0.851
S. aureus Newman [4], first compound 1 µg/mL, partner 0.0312 µg/mL | 0.776
S. aureus Newman [4], first compound 1 µg/mL, partner 0.0625 µg/mL | 0.765
S. aureus Newman [4], first compound 2 µg/mL, partner 0.0156 µg/mL | 0.901
S. aureus Newman [4], first compound 2 µg/mL, partner 0.0625 µg/mL | 0.666
S. pneumoniae D39V [5], first compound 2 µg/mL, partner 0.005 µg/mL | 0.985
S. pneumoniae D39V [5], first compound 2 µg/mL, partner 0.01 µg/mL | 0.995
S. pneumoniae D39V [5], first compound 2 µg/mL, partner 0.02 µg/mL | 0.953
S. pneumoniae D39V [5], first compound 2 µg/mL, partner 0.04 µg/mL | 0.55
S. pneumoniae D39V [5], first compound 4 µg/mL, partner 0.005 µg/mL | 0.999
S. pneumoniae D39V [5], first compound 4 µg/mL, partner 0.01 µg/mL | 0.982
S. pneumoniae D39V [5], first compound 4 µg/mL, partner 0.02 µg/mL | 0.947
S. pneumoniae D39V [5], first compound 4 µg/mL, partner 0.04 µg/mL | 0.549
S. pneumoniae D39V [5], first compound 8 µg/mL, partner 0.005 µg/mL | 0.963
S. pneumoniae D39V [5], first compound 8 µg/mL, partner 0.01 µg/mL | 0.985
S. pneumoniae D39V [5], first compound 8 µg/mL, partner 0.02 µg/mL | 0.939
S. pneumoniae D39V [5], first compound 8 µg/mL, partner 0.04 µg/mL | 0.553

CNC(C)C1CCC(N)C(OC2C(N)CC(N)C(OC3OCC(C)(O)C(NC)C3O)C2O)O1 (stereo not given) [Gentamicin] + COc1c(N2C[C@@H]3CCCN[C@@H]3C2)c(F)cc2c(=O)c(C(=O)O)cn(C3CC3)c12 [Moxifloxacin]
Settings | Bliss interaction score
B. subtilis 168 [3] | 0.0561
S. aureus DSM 20231 | 0.0845
S. aureus Newman [1] | 0.0666
S. pneumoniae D39V [2] | -0.0566

Settings | fitness
B. subtilis 168 [6], first compound 0.0625 µg/mL, partner 0.0625 µg/mL | 0.0368
B. subtilis 168 [6], first compound 0.0625 µg/mL, partner 0.125 µg/mL | 0.048
B. subtilis 168 [6], first compound 0.0625 µg/mL, partner 2 µg/mL | 0.0515
B. subtilis 168 [6], first compound 0.0625 µg/mL, partner 4 µg/mL | 0.0389
B. subtilis 168 [6], first compound 0.0625 µg/mL, partner 8 µg/mL | 0.0196
B. subtilis 168 [6], first compound 0.125 µg/mL, partner 0.0625 µg/mL | 0.0582
B. subtilis 168 [6], first compound 0.125 µg/mL, partner 0.125 µg/mL | 0.0573
B. subtilis 168 [6], first compound 0.125 µg/mL, partner 2 µg/mL | 0.0401
B. subtilis 168 [6], first compound 0.125 µg/mL, partner 4 µg/mL | 0.0418
B. subtilis 168 [6], first compound 0.125 µg/mL, partner 8 µg/mL | 0.0222
B. subtilis 168 [6], first compound 0.25 µg/mL, partner 0.0312 µg/mL | 0.0645
B. subtilis 168 [6], first compound 0.25 µg/mL, partner 0.0625 µg/mL | 0.069
B. subtilis 168 [6], first compound 0.25 µg/mL, partner 0.125 µg/mL | 0.069
B. subtilis 168 [6], first compound 0.25 µg/mL, partner 2 µg/mL | 0.0498
B. subtilis 168 [6], first compound 0.25 µg/mL, partner 4 µg/mL | 0.0517
B. subtilis 168 [6], first compound 0.25 µg/mL, partner 8 µg/mL | 0.0301
S. aureus Newman [4], first compound 0.375 µg/mL, partner 0.0075 µg/mL | 0.733
S. aureus Newman [4], first compound 0.375 µg/mL, partner 0.015 µg/mL | 0.515
S. aureus Newman [4], first compound 0.375 µg/mL, partner 0.03 µg/mL | 0.153
S. aureus Newman [4], first compound 0.5 µg/mL, partner 0.0075 µg/mL | 0.801
S. aureus Newman [4], first compound 0.5 µg/mL, partner 0.015 µg/mL | 0.74
S. aureus Newman [4], first compound 0.75 µg/mL, partner 0.0075 µg/mL | 0.722
S. aureus Newman [4], first compound 0.75 µg/mL, partner 0.015 µg/mL | 0.544
S. aureus Newman [4], first compound 0.75 µg/mL, partner 0.03 µg/mL | 0.189
S. aureus Newman [4], first compound 1 µg/mL, partner 0.0075 µg/mL | 0.841
S. aureus Newman [4], first compound 1 µg/mL, partner 0.015 µg/mL | 0.776
S. aureus Newman [4], first compound 1.5 µg/mL, partner 0.015 µg/mL | 0.195
S. aureus Newman [4], first compound 1.5 µg/mL, partner 0.03 µg/mL | 0.0456
S. aureus Newman [4], first compound 2 µg/mL, partner 0.0075 µg/mL | 0.879
S. aureus Newman [4], first compound 2 µg/mL, partner 0.015 µg/mL | 0.777
S. pneumoniae D39V [5], first compound 2 µg/mL, partner 0.005 µg/mL | ≥ 1
S. pneumoniae D39V [5], first compound 2 µg/mL, partner 0.01 µg/mL | 0.987
S. pneumoniae D39V [5], first compound 2 µg/mL, partner 0.02 µg/mL | 0.949
S. pneumoniae D39V [5], first compound 2 µg/mL, partner 0.0312 µg/mL | 0.0909
S. pneumoniae D39V [5], first compound 2 µg/mL, partner 0.0625 µg/mL | 0.0352
S. pneumoniae D39V [5], first compound 2 µg/mL, partner 0.125 µg/mL | 0.0208
S. pneumoniae D39V [5], first compound 4 µg/mL, partner 0.005 µg/mL | 0.999
S. pneumoniae D39V [5], first compound 4 µg/mL, partner 0.01 µg/mL | 0.998
S. pneumoniae D39V [5], first compound 4 µg/mL, partner 0.02 µg/mL | 0.987
S. pneumoniae D39V [5], first compound 4 µg/mL, partner 0.0312 µg/mL | 0.062
S. pneumoniae D39V [5], first compound 4 µg/mL, partner 0.0625 µg/mL | 0.0383
S. pneumoniae D39V [5], first compound 4 µg/mL, partner 0.125 µg/mL | 0.0445
S. pneumoniae D39V [5], first compound 8 µg/mL, partner 0.005 µg/mL | 0.972
S. pneumoniae D39V [5], first compound 8 µg/mL, partner 0.01 µg/mL | 0.972
S. pneumoniae D39V [5], first compound 8 µg/mL, partner 0.02 µg/mL | 0.925
S. pneumoniae D39V [5], first compound 8 µg/mL, partner 0.0312 µg/mL | 0.0628
S. pneumoniae D39V [5], first compound 8 µg/mL, partner 0.0625 µg/mL | 0.0435
S. pneumoniae D39V [5], first compound 8 µg/mL, partner 0.125 µg/mL | 0.0398
